Laboratory results taken from article PMC8537386, “The Specificity and Broad Multitarget Properties of Ligands for the Free Fatty Acid Receptors FFA3/GPR41 and FFA2/GPR43 and the Related Hydroxycarboxylic Acid Receptor HCA2/GPR109A” (Pharmaceuticals, 2021).
Read-outs that look alike come from different tables or passages of the source.

Tests used:
[1] = system: IL-6 mRNA; experiment: LPS-induced IL-6 gene expression in THP-1 macrophages (qRT-PCR); type: cell-based, human; conditions: 4 h LPS, LPS-treated cells = 100%; for decrease in IL-6 mRNA: compound 50 µg/mL
Description: (§1) The human THP-1 monocyte cell line was obtained from ATCC (American Type Culture Collection). […] The THP-1 monocytes were stimulated to differentiate into macrophages with phorbol 12-myristate 13-acetate (PMA) (50 ng/mL) for 24 h. The medium was exchanged for PMA-free medium for 48 h before the cells were used for experiments.
(§2) The total RNA was isolated from THP-1 cells using TRIzol reagent, according to the manufacturer’s protocol. First-strand cDNA was synthesized from 2 µg of RNA using oligo(dT) primers with RevertAid H Minus kit (Thermo Fisher Scientific, USA). The qRT-PCR procedure was performed using ABsolute Blue QPCR SYBR Green Master Mix reagent (Thermo Fisher Scientific, USA) with a ViiA7 real-time PCR detection system (Applied Biosystems, USA). The primer pairs that were employed for HCA2/GPR109A were forward 5′-[…]-3′ and reverse 5′-[…]-3′; for FFA2/GPR43 were forward 5′-[…]-3′ and reverse 5′-[…]-3′; for FFA3/GPR41 were forward 5′-[…]-3′ and reverse 5′-[…]-3′; for IL-6 were forward 5′-[…]-3′ and reverse 5′-[…]-3′; for MCP-1 were forward 5′-[…]-3′ and reverse 5′-[…]-3′; for TNF-α were forward 5′-[…]-3′ and reverse 5′-[…]-3′; for RPS29 were forward 5′-[…]-3′ and reverse 5′- […]-3′. The mRNA levels were quantified and normalized to the levels of the reference gene RPS29 using the 2^−ΔΔCt method and presented as relative expression compared to the values for untreated cells.

[2] = target: T1, FFA2/GPR43 (Homo sapiens, UniProt O15552); experiment: forskolin-stimulated cAMP accumulation assay, Flp-In-293 cells stably expressing FFA2/GPR43; type: cell-based; conditions: for inhibition at 50 µM: 50 µM compound, NA = not active up to 50 µM
T1 construct: host or cells: Flp-In-293
T1 sequence (O15552 1-330): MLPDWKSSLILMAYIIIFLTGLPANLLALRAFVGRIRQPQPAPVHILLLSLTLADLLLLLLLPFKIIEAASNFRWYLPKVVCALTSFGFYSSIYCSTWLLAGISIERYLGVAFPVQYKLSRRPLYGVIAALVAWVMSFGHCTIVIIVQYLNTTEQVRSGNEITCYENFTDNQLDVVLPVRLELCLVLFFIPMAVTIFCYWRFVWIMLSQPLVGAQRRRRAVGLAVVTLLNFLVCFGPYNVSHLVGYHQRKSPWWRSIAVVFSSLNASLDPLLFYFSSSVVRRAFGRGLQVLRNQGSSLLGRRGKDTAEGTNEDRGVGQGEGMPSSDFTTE
Description: (§3) All of our synthesized compounds were evaluated in forskolin-stimulated cAMP accumulation assay using Flp-In-293 cells stably expressing human FFA2/GPR43, FFA3/GPR41 or HCA2/GPR109A receptors (Table 1, Table 2 and Table 3; Figure 2).
(§4) Flp-In-293 cells (Invitrogen) were used for the generation of stable FFA3/GPR41 and FFA2/GRP43 cell lines using Flp-In System (Invitrogen). Flp-In-293 cells were cultured in Dulbecco’s modified Eagle medium (DMEM) supplemented with 10% fetal bovine serum (FBS), penicillin (100 U/mL), streptomycin (100 µg/mL), and zeocin (100 µg/mL). The cells were co-transfected with pOG44 (Invitrogen) and pcDNA5/FRT-FFA3 or pcDNA5/FRT-FFA2 using TurboFect (Thermo Fisher Scientific), and stable cell lines were generated according to the manufacturer’s protocol (Invitrogen). After transfection, the cells were cultured under selection pressure due to the presence of hygromycin B (100 µg/mL) in DMEM supplemented with 10% FBS, penicillin, and streptomycin.
(§5) For cAMP assay, the cells were distributed into a 384-well white microplate at a density of 12,000 cells per well and stimulated with the indicated compounds in the presence of 3 μM forskolin for 30 min. […] The cells and the compounds were diluted in 1X phosphate-buffered saline (PBS) supplemented with 0.5 mM of 3-isobutyl-1-methylxanthine. The intracellular cAMP levels were measured using a Lance cAMP kit according to the manufacturer’s instructions. The plates were read on a PerkinElmer Victor 3V multilabel plate reader. The cAMP was quantitated in each sample by comparison to a calibration curve of known cAMP quantities provided in the kit.

[3] = system: FFA3/GPR41 mRNA; experiment: FFA3/GPR41 gene expression in LPS-stimulated THP-1 macrophages (qRT-PCR); type: cell-based, human; conditions: compound 50 µM; 4 h LPS 1 µg/mL; p < 0.05
Description: as §1, §2

[4] = system: TNF-α mRNA; experiment: LPS-induced TNF-α gene expression in THP-1 macrophages (qRT-PCR); type: cell-based, human; conditions: 4 h LPS, LPS-treated cells = 100%; for decrease in TNF-α mRNA: compound 50 µg/mL
Description: as §1, §2

[5] = system: MCP-1 mRNA; experiment: LPS-induced MCP-1 gene expression in THP-1 macrophages (qRT-PCR); type: cell-based, human; conditions: 4 h LPS, LPS-treated cells = 100%; for decrease in MCP-1 mRNA: compound 50 µg/mL
Description: as §1, §2

[6] = set-up: method as in PMID 32141297; conditions: calculated with ChemDraw Professional Version 16; cited from earlier work
[7] = target: T2, FFA3/GPR41 (Homo sapiens, UniProt O14843); experiment: forskolin-stimulated cAMP accumulation assay, Flp-In-293 cells stably expressing FFA3/GPR41; type: cell-based; conditions: for Emax / inhibition at 50 µM: Flp-In-293; for Emax: read-out: FFA3/GPR41 Emax, maximal inhibition of forskolin-stimulated cAMP (converted); for inhibition at 50 µM: 50 µM compound, NA = not active up to 50 µM
T2 construct: host or cells: Flp-In-293
T2 sequence (O14843 1-346): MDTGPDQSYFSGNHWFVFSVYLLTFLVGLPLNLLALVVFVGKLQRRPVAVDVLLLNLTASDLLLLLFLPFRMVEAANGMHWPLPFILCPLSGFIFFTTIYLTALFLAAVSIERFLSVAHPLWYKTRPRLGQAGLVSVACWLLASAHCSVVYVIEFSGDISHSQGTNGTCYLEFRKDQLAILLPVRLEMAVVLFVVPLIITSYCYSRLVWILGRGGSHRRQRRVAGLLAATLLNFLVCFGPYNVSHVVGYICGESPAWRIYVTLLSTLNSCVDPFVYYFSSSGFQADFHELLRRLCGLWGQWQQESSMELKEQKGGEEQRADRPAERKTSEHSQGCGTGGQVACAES
Description: as §3, §4, §5

[8] = cyclic voltammetry, electrooxidation potential; type: physicochemical; conditions: vs. Ag/Ag+; acetonitrile, glassy carbon electrode
Description: Cyclic voltammetry experiments were carried out using a PARSTAT 2273 electrochemical system. A stationary glassy carbon disk electrode (d = 0.8 mm) served as the working electrode, while the counter electrode was a Pt wire. The oxidation potentials were measured relative to an Ag/Ag^+ reference electrode. Acetonitrile was dried over P2O5 and distilled; the distillate was stored over CaH2 and redistilled immediately prior to use. Recrystallized tetrabutylammonium tetrafluoroborate (TBATFB) was used as a supporting electrolyte at 0.1 M concentration.

[9] = system: HCA2/GPR109A mRNA; experiment: HCA2/GPR109A gene expression in LPS-stimulated THP-1 macrophages (qRT-PCR); type: cell-based, human; conditions: compound 50 µM; 4 h LPS 1 µg/mL; p < 0.05
Description: as §1, §2

[10] = target: T3, HCA2/GPR109A (Homo sapiens, UniProt Q8TDS4); experiment: forskolin-stimulated cAMP accumulation assay, Flp-In-293 cells stably expressing HCA2/GPR109A; type: cell-based; conditions: for Emax / EC50: mean ± SD; for Emax: read-out: HCA2/GPR109A Emax, maximal inhibition of forskolin-stimulated cAMP (converted); for EC50: inhibition of forskolin-stimulated cAMP, read-out: HCA2/GPR109A EC50
T3 construct: expressed in transfected cells; host or cells: Flp-In-293
Description: as §3
Flp-In-293 cells stably expressing human HCA2/GPR109A receptor (laboratory collection) were grown in DMEM medium supplemented with 10% FBS, penicillin, streptomycin, and hygromycin B (100 µg/mL). All cells were cultured at 37 °C in a humidified incubator containing 5% CO2.
as §5

[11] = system: FFA2/GPR43 mRNA; experiment: FFA2/GPR43 gene expression in LPS-stimulated THP-1 macrophages (qRT-PCR); type: cell-based, human; conditions: propionate 1 mM; 4 h LPS 1 µg/mL; not statistically significant (p > 0.05)
Description: as §1, §2

[12] = inhibition of forskolin-stimulated cAMP, absence of propionate, mean ± SD, read-out: FFA3/GPR41 EC50
[13] = presence of 5 µM propionate, read-out: FFA3/GPR41 EC50 in the presence of propionate

T3 sequence (Q8TDS4 whole entry): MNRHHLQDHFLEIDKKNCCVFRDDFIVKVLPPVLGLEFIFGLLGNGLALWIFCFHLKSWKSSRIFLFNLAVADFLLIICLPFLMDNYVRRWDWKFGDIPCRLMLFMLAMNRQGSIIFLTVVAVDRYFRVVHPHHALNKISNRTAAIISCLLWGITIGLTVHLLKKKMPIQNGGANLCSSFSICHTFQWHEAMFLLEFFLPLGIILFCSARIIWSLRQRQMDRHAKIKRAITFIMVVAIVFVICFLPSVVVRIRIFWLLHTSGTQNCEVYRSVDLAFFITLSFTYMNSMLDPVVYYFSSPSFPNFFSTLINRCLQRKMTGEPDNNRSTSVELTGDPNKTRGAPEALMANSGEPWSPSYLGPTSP

Row | SMILES | decrease in IL-6 mRNA [1] [%] | LPS-stimulated FFA3/GPR41 mRNA level [3] | decrease in TNF-α mRNA [4] [%] | decrease in MCP-1 mRNA [5] [%] | logP [6] | Emax ([7]; mean ± SD) [%] | EC50 [7, 12] [nM] | EC50 [7, 13] [nM] | El.ox. pot. (first, lower potential) [8] [V] | El.ox. pot. (second, higher potential) [8] [V] | LPS-stimulated HCA2/GPR109A mRNA level [9] | Emax ([10]; HCA2) [%] | EC50 [10] [nM] | El.ox. pot. (single value) [8] [V] | inhibition at 50 µM ([2]; Flp-In-293) [%] | further results
1 | CC1=C(C(=O)Nc2ccccc2C)C(c2cccs2)C2=C(CCCC2=O)N1 (stereo not drawn) [1-1] | 67 ± 1 | significantly increased | 59 ± 10 | 53 ± 5 | 2.65 | 96 | 1790 ± 300 | 640 ± 200 | 1.19 | 1.64 | – | – | – | – | – | activity towards FFA2/GPR43 (in words) ([2]; cAMP assay): lacked activity
2 | CC1=C(C(=O)Nc2ccccc2C)C(c2ccco2)C2=C(CCCC2=O)N1 (stereo not drawn) [1-2] | 74 ± 1 | significantly increased | 64 ± 13 | 67 ± 10 | 2.18 | 93 | 610 ± 90 | 580 ± 30 | 1.19 | 1.99 | – | – | – | – | – | –
3 | CC1=C(C(=O)Nc2cc(Cl)ccc2Cl)C(c2ccco2)C2=C(CCCC2=O)N1 (stereo not drawn) [1-3] | – | – | – | – | 2.90 | 99 | 320 ± 50 | 100 ± 20 | – | – | – | – | – | – | – | –
4 | CC1=C(C(=O)Nc2ccc(Cl)cc2Cl)C(c2ccco2)C2=C(CCCC2=O)N1 (stereo not drawn) [1-4, N-(2,4-Dichlorophenyl)-4-(furan-2-yl)-2-methyl-5-oxo-1,4,5,6,7,8-hexahydroquinoline-3-carboxamide] | 64 ± 5 | – | 50 ± 2 | 37 ± 6 | – | 86 | 230 ± 70 | 81 ± 40 | 1.24 | 1.67 | – | – | – | – | – | –
5 | O=c1[nH]c(=O)c2c(CCCCCl)cc(=O)oc2[nH]1 [2-7, 5-(4-Chlorobutyl)-1H-pyrano[2,3-d]pyrimidine-2,4,7-trione] | 74 ± 3 | significantly increased | 48 ± 11 | 50 ± 5 | – | 89 | 220 ± 30 | – | – | – | significantly reduced | 98 | 54 ± 6 | 1.94 | – | Emax ([2]; Flp-In-293, mean ± SD, read-out: FFA2/GPR43 Emax, maximal inhibition of forskolin-stimulated cAMP (converted)): 88%; EC50 ([2]; inhibition of forskolin-stimulated cAMP, mean ± SD): 380 ± 60 nM
6 | O=C(CSc1nc(=O)c2c(CCCCCl)cc(=O)oc2[nH]1)OCc1ccccc1 [3-3] | 65 ± 2 | significantly increased | 53 ± 9 | 49 ± 5 | – | – | – | – | – | – | significantly reduced | 85 | 17000 ± 3000 | – | 66 ± 6 | inhibition at 50 µM [7]: 72 ± 2%
7 | CC(Sc1nc(=O)c2c(CCCCCl)cc(=O)oc2[nH]1)C(=O)c1ccc(OCc2ccccc2)cc1 (stereo not drawn) [3-4, 2-[2-(4-Benzyloxy-phenyl)-1-methyl-2-oxo-ethylsulfanyl]-5-(4-chlorobutyl)-1H-pyrano[2,3-d]pyrimidine-4,7-dione] | 61 ± 1 | – | 58 ± 10 | 41 ± 1 | – | 95 | 380 ± 100 | – | – | – | significantly reduced | – | – | 1.98 | 49 ± 2 | inhibition at 50 µM ([10]; HCA2, 50 µM compound, NA = not active up to 50 µM): 33 ± 16%
8 | NC(=O)CSc1nc(=O)c2c(CCCCCl)cc(=O)oc2[nH]1 [3-5, 2-[5-(4-Chlorobutyl)-4,7-dioxo-1,7-dihydro-4H-pyrano[2,3-d]pyrimidin-2-ylsulfanyl]-acetamide] | – | – | – | – | – | – | – | – | – | – | – | 87 | 62000 ± 10000 | 1.93 | 42 ± 2 | inhibition at 50 µM [7]: 20 ± 4%
9 | CCC(=O)O [propionate, reference compound] | – | – | – | – | – | – | – | – | – | – | – | – | – | – | – | LPS-upregulated FFA2/GPR43 gene expression [11]: slightly increased; downregulation of LPS-induced IL-6 mRNA ([1]; propionate 1 mM): 66 ± 5%; downregulation of LPS-induced TNF-α mRNA ([4]; propionate 1 mM): 42 ± 4%; downregulation of LPS-induced MCP-1 mRNA ([5]; propionate 1 mM): 33 ± 2%
